Legend:
[1] = Stability of sample solutions in the dark/under light; type: physicochemical
Description: Determination: An appropriate amount of a salt sample was taken, dissolved with water, and diluted to prepare a test solution with a concentration of about 10 ppm. An acidic reference substance (extremely-insoluble in water) was prepared with a 30% to 50% ethanol aqueous solution into a test solution with a concentration of about 10 ppm.
Each test solution was scanned by an ultraviolet spectrophotometer (at 0 h) for absorbance in a range of 200 nm to 800 nm immediately after being prepared. Then a test solution of each sample was divided into two parts. One part was placed at room temperature of 25° C. in the dark, and the other part was placed under light with a light intensity of 30,000 lux. At 1 h, 2 h, and 3 h, a solution sample was collected and scanned for absorbance respectively.
An absorbance value of a maximum absorption peak at 0 h (starting) of each test solution was set as a relative content of 100%, and a ratio of an absorbance value at each time point to the absorbance value at 0 h was calculated to determine a relative content, %.

mung bean seedlings = test: Inducing adventitious roots from hypocotyls of mung bean; type: in vivo; settings: day 7
Description: Test solution preparation: 8 mL of a commercially-available STANLEY universal hydroponic nutrient solution was taken and diluted with tap water to 3,200 mL (400-fold dilution) to produce a dilute nutrient solution. An appropriate amount of each of salt samples such as protoporphyrin disodium and potassium chlorhematin was weighed and prepared with the dilute nutrient solution into 0.010 ppm and 0.1 ppm sample test solutions, and 150 mL of each test solution was taken. 150 mL of the dilute nutrient solution was taken as a blank control. The test solutions and the control solution were placed in brown bottles, and the brown bottles were sealed with a black film. Mung bean seedlings with uniform growth and a seedling height of 7 cm to 8 cm were selected, and cut at 3 cm below a first true leaf node. 8 mung bean seedlings were inserted into each bottle (with roots removed) to make lower radicles soaked in a solution. Mung bean seedlings were treated at room temperature of 20° C. to 25° C. for 7 d in total, during which the solution was changed every 2 d. On day 2 to day 3 of the treatment, there was a significant difference. On day 7, the observation and determination were conducted. An average adventitious root number and an average total adventitious root length for each seedling were calculated, and results were shown in the following table: […]

pepper = test: Spraying on pepper to increase a yield; type: in vivo, pepper (Hebei Jize pepper)
Description: Experimental method: A land area of 10 mu was adopted for each of experimental and control groups. A treatment group was sprayed with a potassium hematin solution, a control group was sprayed with heme (at the same dose concentration as the treatment group), and a blank was sprayed with clear water. On May 19 (after transplanting) and July 2 (blooming stage), an agent was sprayed at 1.5 mg/mu in the treatment and control groups, with water amounts per mu respectively as follows: 15 L and 30 L (sample concentrations: 0.1 ppm and 0.05 ppm). On September 13, 10 pepper plants with uniform growth were selected from each of the treatment group and the control group, and fruit numbers and single-fruit weights were counted. The whole field was harvested in three batches on August 30, September 13, and September 25, respectively. Yields were subjected to combined statistics and comparison, and results were as follows: […]

[2] = Dilution and pH determination for sample solutions; type: physicochemical
Description: Method: 0.2500 g of a sample was accurately weighed and added to a 25 mL volumetric flask, dissolved with purified water, and diluted to a specified scale to prepare a 1.00% (10,000.0 ppm) initial solution. The initial solution was diluted with purified water in different ratios to prepare a series of solutions with a concentration of 1,000.0 ppm to 0.1 ppm. A pH value of each sample was determined three times.

wheat = test: Spraying on wheat to increase a yield; type: in vivo, wheat (Huaimai 35)
Description: Crop: Huaimai 35. […] On Jun. 11, 2021, the harvesting was conducted throughout the field at a time.

mosaic virus = test: Controlling diseases in tobacco by spraying; type: in vivo, tobacco (Yunyan 87); settings: 0.20 ppm sprayed twice, 30 L/mu
From the text: For each treatment, 4 plots relatively scattered were selected from the field, with each plot of 50 m^2. An agent was sprayed twice around May 28 and June 4 during a root-spreading stage (12 leaves to 14 leaves) after tobacco transplanting, respectively. A same spraying volume (30 L/mu) was adopted for each treatment. During the spraying operation, each leaf surface should be sprayed evenly without dead corners left.
On July 15, tobacco plants in all treatment plots were surveyed. An incidence grading survey was conducted according to the Grade and investigation method of tobacco diseases and insect pests GB/T23222-2008, and an incidence rate and a disease index were counted for each treatment plot.

chlorophyllase = test: In vitro chlorophyllase-inhibiting activity test; type: biochemical, mung bean; settings: substrate chlorophyll 120 ppm, sample 0.3 ppm to 30.0 ppm
Description: A chlorophyllase inhibition rate of a salt sample solution at each concentration was determined, and an IC50 value for a chlorophyllase inhibition activity of a salt sample was calculated.

[3] = Water solubility of the prepared salts; type: physicochemical
[4] = under light 30,000 lux, 1 h, salts in water, acidic reference in 30% to 50% ethanol
[5] = under light 30,000 lux, 2 h, salts in water, acidic reference in 30% to 50% ethanol
[6] = under light 30,000 lux, 3 h, salts in water, acidic reference in 30% to 50% ethanol
[7] = 1.5 mg/mu sprayed twice (0.1 ppm and 0.05 ppm)
[8] = 3 mg/mu sprayed 3 times (0.2, 0.1, 0.1 ppm)

C=CC1=C(C)c2cc3[n-]c(cc4[n-]c(cc5nc(cc1n2)C(C)=C5C=C)c(C)c4CCC(=O)O)c(CCC(=O)O)c3C.[Cl-].[Fe+3] [Chlorhematin, chlorhematin, reference compound]
Relative content ([1]; in the dark, 25° C., 0 h): 100.00%
Relative content ([1]; in the dark, 25° C., 1 h): 99.55%
Relative content ([1]; in the dark, 25° C., 2 h): 99.24%
Relative content ([1]; in the dark, 25° C., 3 h): 98.65%
Relative content ([1]; under light 30,000 lux, 0 h): 100.00%
Relative content [1, 4]: 27.73%
Relative content ([1]; under light 30,000 lux, 1 h, salts in water, acidic reference in 30% to 50% ethanol, listed as chlorhematin): less than 30%
Relative content [1, 5]: 21.64%
Relative content [1, 6]: 20.21%
Adventitious root number (mung bean seedlings; 0.01 ppm): 11.07 root/seedling
Total adventitious root length (mung bean seedlings; 0.01 ppm): 18.03 cm/seedling
Adventitious root number (mung bean seedlings; 0.1 ppm): 10.33 root/seedling
Total adventitious root length (mung bean seedlings; 0.1 ppm): 18.28 cm/seedling
Average fruit number (pepper; [7]): 49.2 fruits/plant
Single-fruit weight (pepper; [7]): 18.6 g/fruit
Yield per mu (pepper; [7]): 2833.3 kg/mu
Yield increase rate (pepper; 1.5 mg/mu sprayed twice, versus clear water): 5.33%

C=CC1=C(C)c2cc3[nH]c(cc4nc(cc5[nH]c(cc1n2)c(C)c5CCC(=O)O)C(CCC(=O)O)=C4C)c(C)c3C=C [Protoporphyrin disodium, protoporphyrin disodium, reference compound]
Relative content [1, 4]: 63.47%
Relative content [1, 5]: 62.74%
Relative content [1, 6]: 57.05%
Adventitious root number (mung bean seedlings; 0.01 ppm): 9.61 root/seedling
Total adventitious root length (mung bean seedlings; 0.01 ppm): 20.74 cm/seedling
Adventitious root number (mung bean seedlings; 0.1 ppm): 9.77 root/seedling
Total adventitious root length (mung bean seedlings; 0.1 ppm): 21.30 cm/seedling
pH ([2]; 0.1 ppm in purified water): (6.61)
pH ([2]; 1.0 ppm in purified water): (6.67)
pH ([2]; 10.0 ppm in purified water): (7.21)
pH ([2]; 20.0 ppm in purified water): (7.37)
pH ([2]; 30.0 ppm in purified water): (7.50)
pH ([2]; 100.0 ppm in purified water): (8.05)
pH ([2]; 1000.0 ppm in purified water): (9.25)
pH ([2]; 10000.0 ppm in purified water): (10.60)

iron chlorin [reference compound]
Actual yield per mu (wheat; [8]): 586.9 kg
Ear number per mu (wheat; [8]): 31.5 10,000
Grain number per ear (wheat; [8]): 34.6 grains/ear
Thousand-grain weight (wheat; [8]): 53.9 g
Yield increase rate per mu (wheat; 3 mg/mu sprayed 3 times, versus clear water): 4.99%
Relative content ([1]; in the dark, 25° C., 0 h): 100.0%
Relative content ([1]; in the dark, 25° C., 1 h): 99.25%
Relative content ([1]; in the dark, 25° C., 2 h): 99.26%
Relative content ([1]; in the dark, 25° C., 3 h): 99.20%
Relative content ([1]; under light 30,000 lux, 0 h): 100.00%
Relative content [1, 4]: 31.04%
Relative content [1, 5]: 28.12%
Relative content [1, 6]: 23.73%
Disease index (mosaic virus): 8.90
Relative control effect (mosaic virus): 65.57%

magnesium iron chlorophyllin
Relative content [1, 4]: 71.60%
Relative content [1, 5]: 62.44%
Relative content [1, 6]: 63.14%
pH ([2]; 0.1 ppm in purified water): (6.94)
pH ([2]; 1.0 ppm in purified water): (7.11)
pH ([2]; 10.0 ppm in purified water): (7.40)
pH ([2]; 20.0 ppm in purified water): (7.65)
pH ([2]; 30.0 ppm in purified water): (7.78)
pH ([2]; 100.0 ppm in purified water): (8.18)
IC50 for chlorophyllase inhibition activity (chlorophyllase): 5.26 ppm

potassium chlorin [Example 52]
Relative content [1, 4]: 60.05%
Relative content [1, 5]: 46.81%
Relative content [1, 6]: 42.89%
solubility in water [3]: easily soluble
IC50 for chlorophyllase inhibition activity (chlorophyllase): 5.98 ppm

manganese copper chlorophyllin [Example 47]
Relative content [1, 4]: 76.34%
Relative content [1, 5]: 72.11%
Relative content [1, 6]: 67.37%
solubility in water [3]: soluble
IC50 for chlorophyllase inhibition activity (chlorophyllase): 13.85 ppm

manganese chlorin [Example 59]
Relative content [1, 4]: 44.94%
Relative content [1, 5]: 40.28%
Relative content [1, 6]: 34.21%
solubility in water [3]: slightly soluble
IC50 for chlorophyllase inhibition activity (chlorophyllase): 6.23 ppm

sodium chlorin [Example 53]
Relative content [1, 4]: 41.71%
Relative content [1, 5]: 30.78%
Relative content [1, 6]: 26.96%
solubility in water [3]: easily soluble
IC50 for chlorophyllase inhibition activity (chlorophyllase): 6.03 ppm

manganese iron chlorin [Example 27]
Relative content [1, 4]: 72.13%
Relative content [1, 5]: 68.26%
Relative content [1, 6]: 63.87%
solubility in water [3]: slightly soluble
IC50 for chlorophyllase inhibition activity (chlorophyllase): 5.20 ppm

zinc chlorin [Example 60]
Relative content [1, 4]: 55.66%
Relative content [1, 5]: 50.60%
Relative content [1, 6]: 45.30%
solubility in water [3]: slightly soluble
IC50 for chlorophyllase inhibition activity (chlorophyllase): 6.37 ppm

potassium copper chlorophyllin [Example 43]
Relative content [1, 4]: 83.53%
Relative content [1, 5]: 77.11%
Relative content [1, 6]: 78.11%
solubility in water [3]: easily soluble
IC50 for chlorophyllase inhibition activity (chlorophyllase): 12.89 ppm
